# Reference: patent US12011619B2, “Low intensity focused ultrasound for treating cancer and metastasis” (priority 2015, dated 2024)
# How the values were obtained:
# [1] = tested on: RM1 tumor (murine prostate cancer cell line); test: RM1 tumor growth in C57Bl/6 mice; assay type: in vivo, mouse; details: for tumor volume: untreated tumor 1879±98.65 mm^3
# Description: (§1) This protocol yielded an approximate in situ spatial-peak temporal-average acoustic intensity of 270 W/cm^2, resulting in estimated average intra-tumoral temperature elevation of 3.2° C. Post-treatment, there were no signs of normal tissue toxicity such as alopecia, thermal damage, or skin wounds. […] Control mice were injected with equal volume of the vehicle DMSO, which was used to solubilize 17AAG.
# (§2) C57Bl/6 and BalbC nu/nu mice were injected subcutaneously with 1×10^5 RM-1 (murine prostate cancer cell line) and 1×10^6 PC3 (human prostate cancer cell line) cells on the flank, respectively. Approximately 10 days later, the tumor became palpable (3-5 mm in diameter), whereupon LOFU treatment was initiated. […] Palpable tumors were treated with LOFU every 3-4 days for five fractions administered over two weeks. Animals received 17AAG three times a week during this time. Tumor volume measurements were performed twice weekly using Vernier calipers along with simultaneous physical assessment of signs of systemic toxicity (malaise and diarrhea).
# [2] = Toxicity / survival of 17AAG dosing in mice (Kaplan Meier, signs of toxicity); assay type: in vivo
# Description: as §1
# Thus, these dose levels were selected for the current study. The goal was to combine two therapies that are nontoxic, albeit subtherapeutic, and examine whether the combination can be therapeutic. […] To detect the level of ER stress, the expression levels of ER chaperones, ERp44, ERp57, and ERp72 were quantitated among different treatment groups. ERp44 is responsible for oxidative protein folding. ERp57 is an ER resident thiol disulfide oxidoreductase while Erp72 is a disulfide isomerase. All these proteins participate in the protein folding machinery of the ER.
# as §2
# Mice survival/mortality in different treatment groups was analyzed by Kaplan-Meier as a function of radiation dose using Sigma-Plot and GraphPad Prism (version 4.0 for OS X, San Diego, CA, USA) software.
# CHOP transcript = test: Real Time-PCR analysis of CHOP mRNA in tumors; assay type: in vivo, mouse; details: RM1 tumors
# Description: Although phosphorylated eIF2α decreases the translation of most cellular proteins, including pro-survival and anti-apoptotic proteins, it increases the translation of a transcription factor, ATF4 that is responsible for inducing the transcription of pro-apoptotic genes, such as, CCAAT/enhancer-binding protein homologous protein (CHOP), thereby preparing the cell for programmed cell death in case the misfolded proteins are not repaired and ER stress persists.
# Real Time PCR analysis of UPR target genes 24 hr after LOFU treatment the RM1 tumor cells were lysed using RLT buffer mixed with 1% betamercaptoethanol from RNeasy Mini Kit (Qiagen, Valencia, CA, USA).
# Qiagen's protocol for the RNeasy Mini Kit with on-column DNA digestion was used to isolate RNA from the tumor lysates. The RNA samples were stored at −80° C., prior to further use. Isolated RNA was subjected to cDNA synthesis using the SuperScript™ First-Strand Synthesis System (Invitrogen, Grand Island, NY, USA). The splicing of XBP1 RNA was detected using the following primer pair 5′-[…]-3′ (SEQ ID NO:19) and 5′-[…]-3′ (SEQ ID NO:20) (Fisher Scientific, Pittsburgh, PA, USA). […]
# Primers used for real time PCR included GRP78 5′[…]3′ (SEQ ID NO:21) and 5′[…]3′ (SEQ ID NO:22); EDEM 5′ […] […] Data was analyzed by web based PCR array data analysis software from SA Biosciences.
smiles,measurement,setting,value
"C=CCNC1=C2C[C@@H](C)C[C@H](OC)[C@H](O)[C@@H](C)/C=C(\C)[C@H](OC(N)=O)[C@@H](OC)/C=C\C=C(/C)C(=O)NC(=CC1=O)C2=O [17AAG, 17-N-allylamino-17-demethoxygeldanamycinan]",tumor volume,"[1]; 17AAG 50 mg/kg b.w. i.p. three times a week, C57Bl/6 mice",964 mm^3
same,tumor volume,"[1]; 17AAG 75 mg/kg b.w. i.p. three times a week, C57Bl/6 mice",485±24.25 mm^3
same,interval within which all the animals achieved tumor size 2000 mm^3,"[1]; RM1 tumors, 17AAG 25 mg/kg alone",26 to 30 days
same,average estimated tumor growth slower compared to control group,"[1]; RM1 tumors, 17AAG 25 mg/kg, C57Bl/6 mice",9%
same,death of mice (Kaplan Meier survival analysis),"[2]; 75 mg/kg of body weight, after 21 days of treatment, C57Bl/6 mice",50%
same,low dose found to be nontoxic,[2]; Balb/c nude mice,14 mg/kg
same,low dose found to be nontoxic,[2]; C57Bl/6 mice,25 mg/kg
same,normal tissue toxic effect,"[2]; low dose 17AAG 25 mg/kg body weight, C57Bl/6 mice",did not show any normal tissue toxic effect
same,"CHOP transcript levels, induction compared to untreated controls",CHOP transcript,14.8±2 fold
